In the test the target is T1, L-CPT1 (human liver CPT1) (Homo sapiens, UniProt P50416).
T1 construct: made in house; host or cells: Pichia pastoris strain X-33 (pGAPZB/pGAPZA plasmids); crude cell-free extracts
T1 sequence (P50416 1-773): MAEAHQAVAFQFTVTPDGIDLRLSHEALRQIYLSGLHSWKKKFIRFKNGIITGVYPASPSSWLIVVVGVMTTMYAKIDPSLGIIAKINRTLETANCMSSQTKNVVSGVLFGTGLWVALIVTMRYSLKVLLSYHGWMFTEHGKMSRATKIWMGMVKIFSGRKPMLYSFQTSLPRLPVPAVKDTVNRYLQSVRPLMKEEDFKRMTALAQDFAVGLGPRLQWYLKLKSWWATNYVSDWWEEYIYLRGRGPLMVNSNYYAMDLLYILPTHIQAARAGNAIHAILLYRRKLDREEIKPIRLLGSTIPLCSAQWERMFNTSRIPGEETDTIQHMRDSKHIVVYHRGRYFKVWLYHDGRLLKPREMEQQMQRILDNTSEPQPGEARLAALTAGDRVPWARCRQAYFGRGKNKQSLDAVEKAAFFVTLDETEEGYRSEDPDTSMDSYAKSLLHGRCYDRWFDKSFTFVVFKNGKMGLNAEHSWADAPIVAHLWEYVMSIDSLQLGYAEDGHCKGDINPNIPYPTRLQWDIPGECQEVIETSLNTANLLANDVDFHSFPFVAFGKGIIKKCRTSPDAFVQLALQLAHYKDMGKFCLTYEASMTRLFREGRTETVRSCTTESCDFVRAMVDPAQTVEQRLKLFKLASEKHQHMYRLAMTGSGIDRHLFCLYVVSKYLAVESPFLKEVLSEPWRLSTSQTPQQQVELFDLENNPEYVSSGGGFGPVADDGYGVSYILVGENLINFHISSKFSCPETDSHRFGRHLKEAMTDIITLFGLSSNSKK
In words: L-CPT1 inhibition, spectrophotometric CPT activity assay with DTNB (Ellman's reagent). It counts as biochemical. To be noted: human liver CPT1 expressed in P. pastoris, cell extracts; carnitine 500 μM, palmitoyl-CoA 80 μM, DTNB 300 μM, pH 7.4.

Protocol: Human liver and muscle CPT1 cDNAs and rat CPT2 cDNA were subcloned in pGAPZB or pGAPZA, respectively. These plasmids were used to transform P. pastoris strain X-33 via electroporation after the preparation of electrocompetent cells. High copy number clones were selected where necessary using 0.5 or 1 mg/ml Zeocin. Cultures for activity measurements were induced for 16 h in YPD medium (1% yeast extract, 2% peptone, 2% glucose). Crude cell extracts were prepared by disrupting the cells with glass beads or French Press, depending on fermenter sizes. After centrifugation, the cell-free extracts were resuspended in cell breaking buffer (50 mM Tris, pH 7.4, 100 mM KCl, 1 mM EDTA) in the presence of a protease inhibitor cocktail, before aliquoting and freezing at −20° C.
CPT activity was measured using a spectrophotometric assay using 5,5′-dithio-bis-(2-nitrobenzoic acid) (DTNB) also called Ellman's reagent. […] The assay buffer contained 120 mM KCl, 25 mM Tris, pH 7.4, 1 mM EDTA.

`COc1ccc(Cl)cc1S(=O)(=O)N1CCc2c(C)cc(C(=O)Nc3ccc(CC(=O)O)cc3)cc21` [Example 14, (4-{[1-(5-Chloro-2-methoxy-benzenesulfonyl)-4-methyl-2,3-dihydro-1H-indole-6-carbonyl]-amino}-phenyl)-acetic acid] displayed an IC50 of 210 nM.
`O=C(O)Cc1ccc(NC(=O)c2ccc3c(c2)N(S(=O)(=O)c2cccc(Cl)c2)CC3)cc1` [Example 7, (4-{[1-(3-Chloro-benzenesulfonyl)-2,3-dihydro-1H-indole-6-carbonyl]-amino}-phenyl)-acetic acid] came in with a half-inhibitory concentration (IC50) of 125 nM.

The values are drawn from US7799933B2, “Sulfonamide derivatives” (Hoffman-La Roche Inc., priority 2006, dated 2010).
